This note sets out measurements from US4533666A, “6-Phenyl-2,3-bis-(4-methoxyphenyl)-pyridine derivatives having anti-inflammatory activity” (Eli Lilly and Company, priority 1983, dated 1985).

A short description of experiment [1]: mouse writhing assay (acetic acid-induced). In kind it is in vivo, mouse (Cox standard strain albino male mice). The settings on record: oral gavage in corn oil-acacia emulsion (5%), three hours before acetic acid (0.60 percent) i.p., five mice per group; for ED50: Mus musculus, po, 3 h. The source says: The analgesic activity of a number of compounds provided by this invention has been determined in the standard mouse writhing assay. Writhing, which is characterized by contraction of the abdominal musculature, extension of the hindlegs, and rotation of the trunk, was induced in Cox standard strain albino male mice. The mice, weighing 18-24 grams, were fasted overnight and given the test compound by gavage in a corn oil-acacia emulsion (5%) three hours before writhing was induced by the intraperitoneal administration of acetic acid (0.60 percent). Each treatment group consisted of five mice. The total number of writhes for the treatment group was determined during a 10-minute observation starting five minutes after acetic acid administration. […] Table I which follows presents typical test results obtained with certain of the compounds of this invention. The results in the mouse writhing assay are presented as the effective oral (p.o.) dose in mg./kg. of the tested compound required to inhibit induced writhing in the test animals by fifty percent (ED50).
On the technique in general: Writhing tests count abdominal constrictions after an irritant is injected.

Experiment [2] can be described thus: Established adjuvant-induced arthritis test in rats, uninjected paw volume inflammation. In kind it is in vivo, rat (male Lewis-Wistar rats). The following applies: Days 14 through 30, AUC difference.

Consider `COc1ccc(-c2ccc(-c3ccc(F)cc3)nc2-c2ccc(OC)cc2)cc1` [Example 6, 6-(4-Fluorophenyl)-2,3-bis(4-methoxyphenyl)pyridine 4-methylbenzenesulfonate], for which the “Mouse Writhing ED50” value in experiment [1] (180 min, 4-methylbenzenesulfonate, 180 min) worked out at 4.2 mg./kg. p.o. Also, the “% Inhibition of Uninjected Paw Volume Inflammation” value (from here on “% Inhibition”) turned out to be 69% in experiment [2] (5 mg./kg. p.o. × 15, 4-methylbenzenesulfonate) and 71% in experiment [2] (10 mg./kg. p.o. × 15, 4-methylbenzenesulfonate).

A word on the ED50: it is the dose that gives a 50% effect, or the effect in half of the subjects. A high value points to a need for a large dose. In experiment [1], `COc1ccc(-c2ccc(-c3ccc(C(F)(F)F)cc3)nc2-c2ccc(OC)cc2)cc1` [Example 7, 6-(4-Trifluoromethylphenyl)-2,3-bis(4-methoxyphenyl)pyridine] returned a 50% effective dose (ED50) of 8.9 mg/kg. The “% Inhibition” value in experiment [2] (25 mg./kg. p.o. × 15) was determined as 33%.

In experiment [1], `COc1ccc(-c2ccc(-c3ccc(F)cc3)nc2-c2ccc(OC)cc2)cc1` [Example 1, 6-(4-Fluorophenyl)-2,3-bis(4-methoxyphenyl)pyridine] gave an ED50 of 3.5 mg/kg. Besides, the results for the “% Inhibition” value in experiment [2] (5 mg./kg. p.o. × 15) and in experiment [2] (10 mg./kg. p.o. × 15) were 70% and 80%, respectively.

As to `COc1ccc(-c2ccc(-c3ccc(Cl)cc3)nc2-c2ccc(OC)cc2)cc1` [Example 3, 6-(4-Chlorophenyl)-2,3-bis(4-methoxyphenyl)pyridine], the 50% effect level in experiment [1] (ED50) was put at a dose of 0.78 mg/kg. Also, the “% Inhibition” value in experiment [2] (5 mg./kg. p.o. × 15) was determined as 30%; in experiment [2] (10 mg./kg. p.o. × 15), 58%.

Consider `COc1ccc(-c2ccc(-c3ccccc3)nc2-c2ccc(OC)cc2)cc1` [Example 2, 6-Phenyl-2,3-bis(4-methoxyphenyl)pyridine], for which, in experiment [1], the median effective dose (ED50) was determined as 2.7 mg/kg. In addition, the “% Inhibition” value in experiment [2] (25 mg./kg. p.o. × 15, Average of two experiments) worked out at 40%.

On to `COc1ccc(-c2ccc(-c3ccc(Br)cc3)nc2-c2ccc(OC)cc2)cc1` [Example 4, 6-(4-Bromophenyl)-2,3-bis(4-methoxyphenyl)pyridine], for which the 50% effective dose (ED50) in experiment [1] came out at 4.1 mg/kg. In addition, the “% Inhibition” value in experiment [2] (10 mg./kg. p.o. × 15) is on record as 27%; in experiment [2] (25 mg./kg. p.o. × 15), 48%.
